Here are results for two compounds from patent US20260256756A1, “USE OF PIPERIDINE ALKENE COMPOUND IN PREPARATION OF DRUG FOR TREATING CANCER” (JIANGSU HANSOH PHARMACEUTICAL GROUP CO., LTD., priority 2023, published 2026).

Test [1] relates to human ovarian cancer OV-10-0060 xenograft tumor. The test can be described thus: Subcutaneous xenograft tumor model of human ovarian cancer OV-10-0060. Format: in vivo, BALB/c nude mice. From the text: • 1. Experimental objective: To evaluate the in vivo efficacy of the compound in a subcutaneous xenograft tumor model of human ovarian cancer OV-10-0060 in nude mice. • 2. Reagent • HPMC (A1921068, Shanghai Aladdin Biochemical Technology Co., Ltd.), DMEM medium (11995-065, Gibco) • 3. Experimental operations and data processing • 3.1 Animals: BALB/c nude mice, 6-8 weeks old, female, purchased from the Laboratory Animal Business Department of Shanghai Institute of Planned Parenthood Research. • 3.2 Animal modeling • Tumor tissues were harvested from ovarian cancer xenograft model OV-10-0060 tumor-bearing mice and cut into tumor fragments with a diameter of 2-3 mm, which were subcutaneously inoculated into the right anterior scapula region of BALB/c nude mice. • 3.3 Tumor measurement and grouping in tumor-bearing mice • Prior to drug administration, all animals were weighed, and tumor volumes were measured using a vernier caliper. The tumor volume was calculated as: tumor volume (mm^3)=length (mm)×width (mm)×width (mm)/2. According to the body weight of tumor-bearing mice and the size of the tumor, the mice were grouped by random grouping. • 3.4 Administration in tumor-bearing mice • According to the grouping results, the test drug was started to be administered (administration method: oral administration; administration volume: 10 mL/kg; administration frequency: once/day; administration cycle: 28 days; vehicle: 0.5% HPMC). Tumor measurement and weighing were performed twice a week after starting administration of test drugs. The animals were euthanized at the end of the experiment. • 3.5 Data processing • Data processing was performed using software such as GraphPad Prism. The tumor inhibitory efficacy of the compound was evaluated by TGI (%) and ΔT/ΔC (%). ΔT/ΔC (%)=(T−T0)/(C−C0)×100, where T and C are the tumor volumes of the treatment group and the vehicle control group at the end of the experiment, respectively, and T0 and C0 are the tumor volumes of the treatment group and the vehicle control group at the beginning of the experiment, respectively. Tumor growth inhibition (TGI) (%)=100−ΔT/ΔC (%). Tumor growth inhibition (TGI) (%)=100−(T−T0)/T0×100 when tumor regression occurs • 4. Experimental results and conclusions
In general terms: In xenograft studies the graft and the host belong to different species.

The test system of test [2] is human pancreatic cancer cell line Capan-1 xenograft tumor. The test can be described thus: Subcutaneous xenograft tumor model of human pancreatic cancer cell line Capan-1. Format: in vivo, BALB/c nude mice. The note with it: Capan-1, 100 mg/kg oral once/day. From the text:
• 1. Experimental objective: To evaluate the in vivo efficacy of compound 1 in a subcutaneous xenograft tumor model of human pancreatic cancer cell line Capan-1 in nude mice. • 2. Reagent • IMDM medium (30-2005, ATCC) and fetal bovine serum (FBS) (35-081-CV, Corning) • DPBS (21-031-CVR, Corning) and Matrigel (354234, Corning) • HPMC (H02J10D78204, Shanghai Yuanye Bio-Technology Co., Ltd.) • Trypsin-EDTA (25200-072, Gibco), penicillin and streptomycin (MA0110, Dalian Meilun Biotechnology Co., Ltd.) • 3. Experimental operations and data processing • 3.1 Animals: • BALB/c nude mice, 6-8 weeks old, female, purchased from Jiangsu GemPharmatech Co., Ltd. • 3.2 Cell culture and cell suspension preparation • a. A vial of Capan-1 cells was taken from a cell bank, the cells were thawed with IMDM medium (IMDM+20% FBS), and the thawed cells were placed in a cell culture flask (with the cell type, date, the name of the culture operator, etc., being marked on the wall of the flask), which were placed in a CO2 incubator for culturing (wherein the temperature of the incubator was 37° C., and the CO2 concentration was 5%). • b. The cells were passaged once a week, and after passage, the cells were placed in the CO2 incubator to continue the culture. This process was repeated until the cell number met the requirements for in vivo efficacy. • c. The cultured cells were collected, counted using a full-automatic cell counter, and resuspended with PBS on the basis of the counting results to prepare a cell suspension (at a density of 5×10^7/mL). An equal volume of Matrigel was added to the cell suspension, and the resulting mixture was mixed uniformly and then placed in an ice box for later use. • 3.3 Cell inoculation • a. Before inoculation, the nude mice were marked with disposable universal ear tags for mice and rats. • b. At the time of inoculation, the cell suspension was mixed uniformly, 0.2-1 mL of the cell suspension was aspirated using a 1 mL syringe with air bubbles expelled, and the syringe was then placed on an ice bag for later use. • c. […] Tumor was measured on days 4-7 after inoculation depending on the tumor growth, and the tumor size was calculated.
tumor volume (mm^3)=length (mm)×width (mm)×width (mm)/2 Tumor volume calculation: • b. […] The tumor inhibitory efficacy of the compound was evaluated by TGI (%) and ΔT/ΔC (%). ΔT/ΔC (%)=(T−T0)/(C−C0)×100, where T and C are the tumor volumes of the treatment group and the vehicle control group at the end of the experiment, respectively, and T0 and C0 are the tumor volumes of the treatment group and the vehicle control group at the beginning of the experiment, respectively. […]

Setting [3] is: OV-10-0060, 10 mg/kg oral once/day, Day 27.
Where [4] appears, read: OV-10-0060, 100 mg/kg oral once/day, Day 27.

In general, T/C refers to the result in the treated group divided by that in the control group, in per cent. The term TGI denotes how far tumour growth fell short of that in controls. Higher therefore signals much slowing of growth. Take `CCc1cc2ncc(CN3CCN(c4ccc(C(=O)NC)nc4)CC3)cc2[nH]c1=O` [AZD5305]: in test [1] (OV-10-0060, 10 mg/kg oral once/day, Day 0), the “Tumor volume (Mean ± SEM)” value came out at 124 ± 4 mm^3. Further, in test [1] (setting [3]), the T/C was 61.08%, the TGI is reported as 41.19% and the “Tumor volume (Mean ± SEM)” value is given as 1,378 ± 99 mm^3.

In the case of `O=C(c1cc(Cc2n[nH]c(=O)c3ccccc23)ccc1F)N1CCN(C(=O)C2CC2)CC1` [Olaparib], the “Tumor volume (Mean ± SEM)” value in test [1] (OV-10-0060, 100 mg/kg oral once/day, Day 0) was 124 ± 4 mm^3; in test [1] (setting [4]), 1,787 ± 158 mm^3; in test [2] (Day 0), 164 ± 13 mm^3; in test [2] (Day 28), 724 ± 82 mm^3. Further, the T/C in test [1] (setting [4]) is given as 79.24%; in test [2] (Day 28), 86.27%. Further, the TGI worked out at 22.00% in test [1] (setting [4]) and 14.39% in test [2] (Day 28).
